target: T1, ΔF508-CFTR (Homo sapiens, UniProt P13569, DEL508-508); assay: Ussing chamber short-circuit current measurement, CFTRinh-172-inhibitable current; assay type: cell-based; conditions: compound at 10 uM alone, 24 h, primary hBE cells homozygous ΔF508; relative to VX-809 (1 uM)
T1 construct: Primary lung epithelial cells (hBEs) homozygous for the Cystic Fibrosis-causing ΔF508 mutation; endogenous in cells; host or cells: primary lung (bronchial) epithelial cells (hBE) homozygous for ΔF508, differentiated at an air-liquid interface
T1 sequence (P13569 with tags, fused parts or gaps DEL508-508): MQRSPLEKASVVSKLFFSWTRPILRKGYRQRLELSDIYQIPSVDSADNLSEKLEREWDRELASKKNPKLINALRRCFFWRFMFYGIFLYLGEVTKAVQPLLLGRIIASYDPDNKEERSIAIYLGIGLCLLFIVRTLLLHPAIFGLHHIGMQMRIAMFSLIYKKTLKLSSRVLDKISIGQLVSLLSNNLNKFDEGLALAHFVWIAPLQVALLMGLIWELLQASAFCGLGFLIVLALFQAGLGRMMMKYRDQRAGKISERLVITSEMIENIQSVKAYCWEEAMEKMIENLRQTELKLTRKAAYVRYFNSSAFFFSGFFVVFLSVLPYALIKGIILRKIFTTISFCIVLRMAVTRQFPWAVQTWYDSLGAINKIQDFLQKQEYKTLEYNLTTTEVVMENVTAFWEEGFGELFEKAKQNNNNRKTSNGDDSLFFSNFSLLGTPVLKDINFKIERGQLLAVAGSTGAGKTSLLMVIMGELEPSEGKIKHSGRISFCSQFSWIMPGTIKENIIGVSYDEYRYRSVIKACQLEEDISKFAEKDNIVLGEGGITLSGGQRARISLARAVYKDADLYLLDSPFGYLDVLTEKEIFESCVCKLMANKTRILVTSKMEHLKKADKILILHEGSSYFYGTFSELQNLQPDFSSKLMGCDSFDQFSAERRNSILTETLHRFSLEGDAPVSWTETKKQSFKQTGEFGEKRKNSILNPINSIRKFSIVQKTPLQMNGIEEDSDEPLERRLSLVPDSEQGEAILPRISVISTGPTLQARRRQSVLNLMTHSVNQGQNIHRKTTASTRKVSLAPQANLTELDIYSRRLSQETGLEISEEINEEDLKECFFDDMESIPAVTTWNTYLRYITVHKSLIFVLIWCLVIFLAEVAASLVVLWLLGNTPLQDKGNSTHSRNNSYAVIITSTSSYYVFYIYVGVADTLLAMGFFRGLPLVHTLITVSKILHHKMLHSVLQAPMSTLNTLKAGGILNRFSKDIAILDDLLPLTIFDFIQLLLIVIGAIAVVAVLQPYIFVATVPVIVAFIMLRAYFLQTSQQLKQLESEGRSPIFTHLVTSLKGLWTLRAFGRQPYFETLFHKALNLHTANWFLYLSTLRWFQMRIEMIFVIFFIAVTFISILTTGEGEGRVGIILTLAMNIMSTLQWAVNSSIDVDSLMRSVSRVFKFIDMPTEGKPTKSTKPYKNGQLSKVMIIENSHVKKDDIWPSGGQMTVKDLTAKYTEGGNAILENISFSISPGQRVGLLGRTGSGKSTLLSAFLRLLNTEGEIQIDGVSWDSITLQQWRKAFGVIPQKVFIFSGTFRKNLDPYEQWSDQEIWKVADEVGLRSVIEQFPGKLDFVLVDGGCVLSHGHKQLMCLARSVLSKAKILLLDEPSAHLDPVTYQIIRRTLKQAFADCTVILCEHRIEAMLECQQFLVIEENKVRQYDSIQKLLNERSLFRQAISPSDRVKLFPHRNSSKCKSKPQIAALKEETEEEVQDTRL
Method: Primary lung epithelial cells (hBEs) homozygous for the Cystic Fibrosis-causing ΔF508 mutation were differentiated for a minimum of 4 weeks in an air-liquid interface on SnapWell filter plates prior to the Ussing measurements. Cells were apically mucus-washed for 30 minutes prior to treatment with compounds. The basolateral media was removed and replaced with media containing the compound of interest diluted to its final concentration from DMSO stocks. Treated cells were incubated at 37° C. and 5% CO2 for 24 hours. At the end of the treatment period, the cells on filters were transferred to the Ussing chamber and equilibrated for 30 minutes. The short-circuit current was measured in voltage clamp-mode (Vhold=0 mV), and the entire assay was conducted at a temperature of 36° C.-36.5° C. Once the voltages stabilized, the chambers were clamped, and data was recorded by pulse readings every 5 seconds. Following baseline current stabilization, the following additions were applied and the changes in current and resistance of the cells monitored: • 1. Benzamil to the apical chamber to inhibit ENaC sodium channel. • 2. Forskolin to both chambers to activate ΔF508-CFTR by phosphorylation. • 3. Genistein to both chambers to potentiate ΔF508-CFTR channel opening. • 4. CFTRinh-172 to the apical chamber to inhibit ΔF508-CFTR Cl− conductance.
The inhibitable current (that current that is blocked by CFTRinh-172) was measured as the specific activity of the ΔF508-CFTR channel, and increases in response to compound in this activity over that observed in vehicle-treated samples were identified as the correction of ΔF508-CFTR function imparted by the compound tested. ++ indicates activity ≧25% of VX-809 (1 uM) with compound at 10 uM and VX-809 at 1 uM; ** indicates activity ≧200% of VX-809 (1 uM) with compound at 10 uM and VX-809 at 1 uM; ** indicates activity 100-200% of VX-809 (1 uM) with compound at 10 uM and VX-809 at 1 uM; The transepithelial resistance (TER) for these compounds are within 30% of DMSO controls.

Row | SMILES | Solo % VX809 (Ussing activity)
1 | Cn1ccnc1SCCNC(=O)c1cc(-c2ccccc2)on1 [Compound 18] | ++ (++ indicates activity ≧25% of VX-809 (1 uM) with compound at 10 uM and VX-809 at 1 uM)
2 | Cc1cn(CCNC(=O)c2cc(-c3ccccc3)on2)nn1 [Compound 9] | ++ (++ indicates activity ≧25% of VX-809 (1 uM) with compound at 10 uM and VX-809 at 1 uM)
3 | O=C(NCCCn1ccnc1)c1cc(-c2ccccc2)on1 [Compound 16] | ++ (++ indicates activity ≧25% of VX-809 (1 uM) with compound at 10 uM and VX-809 at 1 uM)

same assay, conditions: compound at 10 uM with VX-809 at 1 uM, 24 h, primary hBE cells homozygous ΔF508; relative to VX-809 (1 uM)

Row | SMILES | Combination % VX809 (Ussing activity)
4 | Cn1ccnc1SCCNC(=O)c1cc(-c2ccccc2)on1 [Compound 18] | ** (** indicates activity ≧200% of VX-809 (1 uM) with compound at 10 uM and VX-809 at 1 uM)
5 | O=C(NCCCn1ccnc1)c1cc(-c2ccccc2)on1 [Compound 16] | ** (** indicates activity ≧200% of VX-809 (1 uM) with compound at 10 uM and VX-809 at 1 uM)

target: T1, ΔF508-CFTR; assay: hBE equivalent current (Ieq) assay, AUC of equivalent chloride current; assay type: cell-based; conditions: compound at 10 uM, 24 h, primary hBE cells homozygous ΔF508; AUC increase relative to VX-809 at 1 uM
Method: Primary lung epithelial cells homozygous for the Cystic Fibrosis-causing ΔF508 mutation were differentiated for a minimum of 4 weeks in an air-liquid interface on Costar 24 well HTS filter plates prior to the equivalent current (Ieq) measurements. Cells were apically mucus-washed for 30 minutes 24 h prior to treatment with compounds. The basolateral media was removed and replaced with media containing the compound of interest diluted to its final concentration from DMSO stocks. Treated cells were incubated at 37° C. and 5% CO2 for 24 hours. At the end of the treatment period, the media was changed to the Ieq experimental solution for 30 minutes before the experiment and plates are maintained in a CO2-free incubator during this period. The plates containing the cells were then placed in pre-warmed heating blocks at 36° C.±0.5 for 15 minutes before measurements are taken. The transepithelial voltage (VT) and conductance (GT) were measured using a custom 24 channel current clamp (TECC-24) with 24 well electrode manifold. The Ieq assay measurements were made following additions with standardized time periods: • 1. The baseline VT and GT values were measured for approximately 20 minutes. • 2. Benzamil was added to block ENaC for 15 minutes. • 3. Forskolin plus VX-770 were added to maximally activate ΔF508-CFTR for 27 minutes. • 4. Bumetanide was added to inhibit the NaK2Cl cotransporter and shut-off secretion of chloride. The activity data captured was the area under the curve (AUC) for the traces of the equivalent chloride current. The AUC was collected from the time of the forskolin/VX-770 addition until the inhibition by bumetanide addition. Correction in response to compound treatment was scored as the increase in the AUC for compound-treated samples over that of vehicle-treated samples. (++ indicates activity ≧25% run at 10 uM of VX-809 at 1 uM, + indicates activity 10 to ≦25% run at 10 uM of VX-809 at 1 uM.

Row | SMILES | Ieq hBE Activity
6 | Cn1ccnc1SCCNC(=O)c1cc(-c2ccccc2)on1 [Compound 18] | ++ (++ indicates activity ≧25% run at 10 uM of VX-809 at 1 uM)
7 | COCCNC(=O)c1cc(-c2ccccc2OC)on1 [Compound 153] | ++ (++ indicates activity ≧25% run at 10 uM of VX-809 at 1 uM)
8 | COCc1noc(CCNC(=O)c2cc(-c3ccccc3)on2)n1 [Compound 11] | ++ (++ indicates activity ≧25% run at 10 uM of VX-809 at 1 uM)
9 | O=C(NC[C@@H]1CCCO1)c1cc(-c2ccccc2)on1 [Compound 2, (S)-5-phenyl-N-((tetrahydrofuran-2-yl)methyl)isoxazole-3-carboxamide] | ++ (++ indicates activity ≧25% run at 10 uM of VX-809 at 1 uM)
10 | O=C(NCCCc1cccnc1)c1cc(-c2ccccc2)on1 [Compound 207] | ++ (++ indicates activity ≧25% run at 10 uM of VX-809 at 1 uM)
11 | Cn1cnc(CCCNC(=O)c2cc(-c3ccccc3)on2)c1 [Compound 197] | ++ (++ indicates activity ≧25% run at 10 uM of VX-809 at 1 uM)
12 | O=C(NCCc1ccccn1)c1cc(-c2cccs2)on1 [Compound 232] | ++ (++ indicates activity ≧25% run at 10 uM of VX-809 at 1 uM)
13 | CCn1nc(C)c(CCNC(=O)c2cc(-c3ccccc3)on2)c1C [Compound 10] | + (+ indicates activity 10 to ≦25% run at 10 uM of VX-809 at 1 uM)
14 | COCCNC(=O)c1cc(-c2ccccc2)on1 [Compound 329A] | ++ (++ indicates activity ≧25% run at 10 uM of VX-809 at 1 uM)
15 | CCCn1cc(CNC(=O)c2cc(-c3ccccc3)on2)cn1 [Compound 30] | + (+ indicates activity 10 to ≦25% run at 10 uM of VX-809 at 1 uM)
16 | O=C(NCc1ccco1)c1cc(-c2ccccc2)on1 [Compound 20] | + (+ indicates activity 10 to ≦25% run at 10 uM of VX-809 at 1 uM)
17 | COCc1noc(CNC(=O)c2cc(-c3ccccc3)on2)n1 [Compound 35] | ++ (++ indicates activity ≧25% run at 10 uM of VX-809 at 1 uM)
18 | Cn1c(CCCNC(=O)c2cc(-c3ccccc3)on2)nc2ccccc21 [Compound 17] | + (+ indicates activity 10 to ≦25% run at 10 uM of VX-809 at 1 uM)
19 | Cc1nn2cc(CCNC(=O)c3cc(-c4ccccc4)on3)nc2s1 [Compound 114] | ++ (++ indicates activity ≧25% run at 10 uM of VX-809 at 1 uM)
20 | O=C(NCCN1CCOC1=O)c1cc(-c2ccccc2)on1 [Compound 5] | ++ (++ indicates activity ≧25% run at 10 uM of VX-809 at 1 uM)
21 | O=C(NCCc1cnccn1)c1cc(-c2ccccc2)on1 [Compound 6] | ++ (++ indicates activity ≧25% run at 10 uM of VX-809 at 1 uM)
22 | O=C(NCc1ccccn1)c1cc(-c2ccccc2)on1 [Compound 41] | + (+ indicates activity 10 to ≦25% run at 10 uM of VX-809 at 1 uM)

Row | SMILES | Ieq hBE Activity
23 | O=C(NCCc1cccnc1)c1cc(-c2ccccc2)on1 [Compound 101] | ++ (++ indicates activity ≧25% run at 10 uM of VX-809 at 1 uM)
24 | O=C(NCCn1nccn1)c1cc(-c2ccccc2)on1 [Compound 115] | ++ (++ indicates activity ≧25% run at 10 uM of VX-809 at 1 uM)
25 | O=C(NCC(O)COCc1ccccc1)c1cc(-c2ccccc2)on1 (stereo not drawn) [Compound 172] | + (+ indicates activity 10 to ≦25% run at 10 uM of VX-809 at 1 uM)
26 | O=C(NCCc1ccccn1)c1cc(-c2ccccc2)on1 [Compound 100] | + (+ indicates activity 10 to ≦25% run at 10 uM of VX-809 at 1 uM)
27 | O=C(NCC1CCOC1)c1cc(-c2ccccc2)on1 (stereo not drawn) [Compound 52] | ++ (++ indicates activity ≧25% run at 10 uM of VX-809 at 1 uM)
28 | O=C(NCCn1nccn1)c1cc(-c2cccs2)on1 [Compound 228] | ++ (++ indicates activity ≧25% run at 10 uM of VX-809 at 1 uM)
29 | O=C(NCCCn1cncn1)c1cc(-c2ccccc2)on1 [Compound 192] | ++ (++ indicates activity ≧25% run at 10 uM of VX-809 at 1 uM)
30 | O=C(NCCCn1ccnc1)c1cc(-c2ccccc2)on1 [Compound 16] | ++ (++ indicates activity ≧25% run at 10 uM of VX-809 at 1 uM)
31 | Cn1nncc1CCCNC(=O)c1cc(-c2ccccc2)on1 [Compound 295] | + (+ indicates activity 10 to ≦25% run at 10 uM of VX-809 at 1 uM)
32 | Cn1cncc1CCCNC(=O)c1cc(-c2ccccc2)on1 [Compound 195] | ++ (++ indicates activity ≧25% run at 10 uM of VX-809 at 1 uM)
33 | O=C(NCCCN1CCOCC1)c1cc(-c2ccccc2)on1 [Compound 13] | ++ (++ indicates activity ≧25% run at 10 uM of VX-809 at 1 uM)
34 | O=C(Nc1cccnc1)c1cc(-c2ccccc2)on1 [Compound 345] | + (+ indicates activity 10 to ≦25% run at 10 uM of VX-809 at 1 uM)
35 | CCCCNC(=O)c1cc(-c2ccc(F)cc2)on1 [Compound 342] | ++ (++ indicates activity ≧25% run at 10 uM of VX-809 at 1 uM)
36 | O=C(NCCC1CCOCC1)c1cc(-c2ccccc2)on1 [Compound 90] | ++ (++ indicates activity ≧25% run at 10 uM of VX-809 at 1 uM)
37 | O=C(NCCCN1CCOCC1)c1cc(-c2cccs2)on1 [Compound 14] | ++ (++ indicates activity ≧25% run at 10 uM of VX-809 at 1 uM)
38 | O=C(NCC(O)c1ccncc1)c1cc(-c2ccccc2)on1 (stereo not drawn) [Compound 7] | ++ (++ indicates activity ≧25% run at 10 uM of VX-809 at 1 uM)
39 | COCc1nc(CNC(=O)c2cc(-c3ccccc3)on2)no1 [Compound 372] | ++ (++ indicates activity ≧25% run at 10 uM of VX-809 at 1 uM)

From patent US20160151335A1, “METHODS OF MODULATING CFTR ACTIVITY” (PROTEOSTASIS THERAPEUTICS, INC., priority 2013, published 2016)
